Source: PubChem BioAssay AID2060604 (Molecular Pharmacology Branch, DTP, NCI, 2025)
pIC50: −log10 of the molar value.

Tested on: 379773-124-R-J2-PDC complex spheroids, viability % test/control
Assay: Anticancer human tumor 379773-124-R-J2-PDC patient-derived endometrial carcinoma cell line growth inhibition [CLK]
Details: for pIC50: curve of first compound; for viability, T/C: stronger effect = lower value
Outline: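 Patient-derived tumor cells grown as complex spheroids with HUVEC endothelial cells and mesenchymal stem cells, treated with drug combinations. Concentrations descend in half-log steps from near clinical Cmax, or from 10 microM if Cmax unknown.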
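Also: compound exposure lasted seven days before the viability readout.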
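For viability, T/C in this document: 100% = DMSO vehicle control wells.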

`COc1ccc([C@@H](O)c2cc(-c3ncnc4cc(N5CCOCC5)ccc34)c(F)cc2Cl)nn1` + CNC(=O)c1ccc(Nc2nc(OC3CCCC3)c3c(-c4ccc5nc(C)oc5c4)c[nH]c3n2)c(OC)c1 was tested. Which pIC50 (second compound 0.0316 µM) did it give?
The pIC50 was 5.47.

What about the pIC50 (second compound 0.1 µM) of the same compound?
The pIC50 was > 7.50.

And the pIC50 (second compound 0.316 µM)?
Its pIC50 is > 7.50.

And the pIC50 (second compound 1 µM)?
Its pIC50 is > 7.50.

And the pIC50 (second compound 3.16 µM)?
The pIC50 was > 7.50.

What about the pIC50 (second compound 10 µM) of the same compound?
The pIC50 was > 7.50.

What about the viability, T/C (second compound 0.0316 µM, first compound 0.0316 µM) of the same compound?
The viability, T/C was 79.2%.

And the viability, T/C (second compound 0.0316 µM, first compound 0.1 µM)?
Its viability, T/C is 79.9%.

What about the viability, T/C (second compound 0.0316 µM, first compound 0.316 µM) of the same compound?
Its viability, T/C is 68%.

And the viability, T/C (second compound 0.0316 µM, first compound 1 µM)?
The viability, T/C was 60.6%.

What about the viability, T/C (second compound 0.0316 µM, first compound 3.16 µM) of the same compound?
The viability, T/C was 58.7%.

What about the viability, T/C (second compound 0.0316 µM, first compound 10 µM) of the same compound?
The viability, T/C was 20.4%.

What about the viability, T/C (second compound 0.1 µM, first compound 0.0316 µM) of the same compound?
The viability, T/C was 35.6%.

What about the viability, T/C (second compound 0.1 µM, first compound 0.1 µM) of the same compound?
The viability, T/C was 30.8%.

And the viability, T/C (second compound 0.1 µM, first compound 0.316 µM)?
The viability, T/C was 32.7%.

What about the viability, T/C (second compound 0.1 µM, first compound 1 µM) of the same compound?
Its viability, T/C is 29.7%.

And the viability, T/C (second compound 0.1 µM, first compound 3.16 µM)?
Its viability, T/C is 24%.

What about the viability, T/C (second compound 0.1 µM, first compound 10 µM) of the same compound?
Its viability, T/C is 12.7%.

And the viability, T/C (second compound 0.316 µM, first compound 0.0316 µM)?
The viability, T/C was 45.2%.

And the viability, T/C (second compound 0.316 µM, first compound 0.1 µM)?
The viability, T/C was 38%.

And the viability, T/C (second compound 0.316 µM, first compound 0.316 µM)?
The viability, T/C was 29%.

And the viability, T/C (second compound 0.316 µM, first compound 1 µM)?
The viability, T/C was 21.6%.

What about the viability, T/C (second compound 0.316 µM, first compound 3.16 µM) of the same compound?
Its viability, T/C is 15.1%.

What about the viability, T/C (second compound 0.316 µM, first compound 10 µM) of the same compound?
Its viability, T/C is 7.43%.

And the viability, T/C (second compound 1 µM, first compound 0.0316 µM)?
The viability, T/C was 34.8%.

And the viability, T/C (second compound 1 µM, first compound 0.1 µM)?
The viability, T/C was 35%.

What about the viability, T/C (second compound 1 µM, first compound 0.316 µM) of the same compound?
Its viability, T/C is 32.1%.

And the viability, T/C (second compound 1 µM, first compound 1 µM)?
Its viability, T/C is 25.9%.

What about the viability, T/C (second compound 1 µM, first compound 3.16 µM) of the same compound?
The viability, T/C was 14.9%.

And the viability, T/C (second compound 1 µM, first compound 10 µM)?
The viability, T/C was 6.1%.

And the viability, T/C (second compound 3.16 µM, first compound 0.0316 µM)?
The viability, T/C was 34.7%.

What about the viability, T/C (second compound 3.16 µM, first compound 0.1 µM) of the same compound?
The viability, T/C was 32.3%.

What about the viability, T/C (second compound 3.16 µM, first compound 0.316 µM) of the same compound?
The viability, T/C was 27.8%.

And the viability, T/C (second compound 3.16 µM, first compound 1 µM)?
Its viability, T/C is 19.3%.

And the viability, T/C (second compound 3.16 µM, first compound 3.16 µM)?
Its viability, T/C is 15.7%.

What about the viability, T/C (second compound 3.16 µM, first compound 10 µM) of the same compound?
Its viability, T/C is 4.62%.

What about the viability, T/C (second compound 10 µM, first compound 0.0316 µM) of the same compound?
The viability, T/C was 32.8%.

And the viability, T/C (second compound 10 µM, first compound 0.1 µM)?
Its viability, T/C is 33.7%.

What about the viability, T/C (second compound 10 µM, first compound 0.316 µM) of the same compound?
Its viability, T/C is 23.4%.

And the viability, T/C (second compound 10 µM, first compound 1 µM)?
Its viability, T/C is 17.9%.

And the viability, T/C (second compound 10 µM, first compound 3.16 µM)?
The viability, T/C was 14.2%.

What about the viability, T/C (second compound 10 µM, first compound 10 µM) of the same compound?
The viability, T/C was 4.23%.
